The structures appear in SMILES notation.

Data set [1] is classed as physicochemical. The following applies: pH 2.7. How it is done:
The log P values were measured according to EEC directive 79/831 Annex V.A8 by HPLC (High Performance Liquid Chromatography) on reversed-phase columns (C 18), using the methods below: [α] The LC-MS determination in the acidic range is carried out at pH 2.7 using the mobile phases 0.1% aqueous formic acid and acetonitrile (contains 0.1% formic acid), linear gradient from 10% acetonitrile to 95% acetonitrile

The next data set relates to Pyricularia oryzae. Format: in vivo, Pyricularia oryzae on rice. The following applies: 500 ppm active compound, protective, rice, evaluation 7 days after inoculation.
A further data set relates to Rhizoctonia solani. In words: Rhizoctonia test (rice)/protective. Format: in vivo, Rhizoctonia solani on rice. The following applies: 500 ppm active compound, protective, evaluation 4 days after inoculation. How it is done:
Rhizoctonia Test (Rice)/Protective [table] To produce a suitable preparation of active compound, 1 part by weight of active compound is mixed with the stated amount of solvent, and the concentrate is diluted with water and the stated amount of emulsifier to the desired concentration. To test for protective activity, young rice plants are sprayed with the preparation of active compound at the stated application rate. 1 day after the treatment, the plants are inoculated with hyphae of Rhizoctonia solani. The plants are then placed in a greenhouse at a relative atmospheric humidity of 100% and a temperature of 25° C.

In the next data set the test system is Cochliobolus miyabeanus. The data set is described as follows: Cochliobolus test (rice)/protective. The following applies: 500 ppm active compound, protective, evaluation 7 days after inoculation. It is filed as in vivo, Cochliobolus miyabeanus on rice.
Another data set relates to Fusarium proliferatum. In words: microbe, parasite or virus in culture. Format: cell-based. The following applies: 120 h, read-out: inhibition of fumonisin FB1 production.
In another data set the test system is Fusarium graminearum. The data set is described as follows: microbe, parasite or virus in culture. Format: cell-based. The following applies: 168 h, read-out: inhibition of DON/AcDON production.
Data set [2] relates to Setaria viridis (green foxtail). The data set is described as follows: Phytoregulatory pre-emergence action, SETVI. The following applies: 320 g of a.i./ha, visual assessment after approx. 3 weeks. It is filed as in vivo. How it is done: (§1) Phytoregulatory Pre-Emergence Action Seeds of monocotyledonous or dicotyledonous crop plants are placed in wood-fibre pots in sandy loam and covered with soil. […] After the treatment, the pots are placed in a greenhouse and kept under good growth conditions for the test plants. The visual assessment of the suppression of growth in the test plants is carried out after a trial period of approx. 3 weeks by comparison with untreated controls (phytoregulatory activity in percent: 100% activity=maximum inhibition of plant growth, 0% activity=plant growth like that of an untreated control.)

For data set [3], the system named is Triticum aestivum (common wheat). In words: Phytoregulatory pre-emergence action, TRZAS. Format: in vivo. The following applies: 320 g of a.i./ha, visual assessment after approx. 3 weeks. The procedure:
as §1

For another data set, the system named is Brassica napus (rape). The data set is described as follows: Phytoregulatory pre-emergence action, BRSNW. Format: in vivo. The following applies: 320 g of a.i./ha, visual assessment after approx. 3 weeks. The procedure: as §1
For data set [4], the system named is Viola tricolor (wild pansy). In words: Phytoregulatory pre-emergence action, VIOTR. It is filed as in vivo. The following applies: 320 g of a.i./ha, visual assessment after approx. 3 weeks. The procedure:
as §1

For data set [5], the system named is Abuthilon theophrasti (velvetleaf). In words: Phytoregulatory pre-emergence action, ABUTH. It is filed as in vivo. The following applies: 320 g of a.i./ha, visual assessment after approx. 3 weeks. How it is done: as §1
The test system of a further data set is Phakopsora pachyrhizi. The data set is described as follows: Phakopsora test (soya bean)/protective. It is filed as in vivo, Phakopsora pachyrhizi on soya bean. The following applies: 250 ppm, protective, evaluation 11 days after inoculation.

`Cc1cc(Br)ccc1OCC(O)(Cn1cncn1)C(C)(C)C` (stereo not drawn) [Compound 22]: in [1], the logP result was “logP 3.5 ^[a], [M]^+ = 370/372”.
On to `Cc1cc(Br)ccc1OCC(O)(c1cncnc1)C(C)(C)C` (stereo not drawn) [Compound 12], for which the efficacy in the data set on Pyricularia oryzae, in the data set on Rhizoctonia solani and in the data set with Cochliobolus miyabeanus was no less than 80% in each case. Moreover, the inhibition at 50 µM with Fusarium proliferatum and in the data set on Fusarium graminearum was greater than 80% each time. Besides, in data set [2], the “Inhibition of the growth of useful or harmful plants in %, SETVI” value is reported as 90%. Also, the “Inhibition of the growth of useful or harmful plants in %, TRZAS” value in data set [3] came out at 50%. Also, in the data set on Brassica napus (rape), the “Inhibition of the growth of useful or harmful plants in %, BRSNW” value came to 60%. Also, the “Inhibition of the growth of useful or harmful plants in %, VIOTR” value in data set [4] was found to be 90%. In addition, the “Inhibition of the growth of useful or harmful plants in %, ABUTH” value in [5] is listed as 80%.
Regarding `CC(C)(C)C(O)(COc1ccc(Br)c(F)c1)Cn1cncn1` (stereo not drawn) [Compound 30], in [1], the logP entry was “logP 3.13 ^[a], [M]^+ = 374/376”.
With `CC(C)(C)C(O)(COc1ccc(Cl)cc1Cl)c1cncnc1` (stereo not drawn) [EP-A 0 028 755, Example 5, reference compound], the “Inhibition of the growth of useful or harmful plants in %, SETVI” value in data set [2] is reported as 80%. Moreover, in [3], the “Inhibition of the growth of useful or harmful plants in %, TRZAS” value was 40%. In the data set with Brassica napus (rape), the “Inhibition of the growth of useful or harmful plants in %, BRSNW” value is recorded as 60%. Besides, the “Inhibition of the growth of useful or harmful plants in %, VIOTR” value in data set [4] was determined as 90%. Also, the “Inhibition of the growth of useful or harmful plants in %, ABUTH” value in data set [5] is 40%.
Consider `CC1(C(O)(COc2ccc(Br)c(F)c2F)Cn2cncn2)CC1` (stereo not drawn) [Compound 44], for which, in [1], the logP result was “logP 2.95 ^[a], [M]^+ = 390/391”.
Still for that read-out and setting: with `Cc1cc(OCC(O)(Cn2cncn2)C(C)(C)C)cc(C)c1I` (stereo not drawn) [Compound 37] the entry was “logP 4.04 ^[a], [M]^+ = 430/432”.
For `CC(C)(C)C(O)(COc1cc(F)c(Br)cc1F)Cn1cncn1` (stereo not drawn) [Compound 29], the logP entry in data set [1] is “logP 3.21 ^[a], [M]^+ = 392/394”.
Regarding `Cc1cc(OCC(O)(Cn2cncn2)C(C)(C)C)ccc1Br` (stereo not drawn) [Compound 19], the logP result in data set [1] was “logP 3.41 ^[a], [M]^+ = 370/372”.
Same read-out and setting: next, `CC1(C(O)(COc2cc(F)c(Br)c(F)c2)Cn2cncn2)CC1` (stereo not drawn) [Compound 43]: “logP 2.95 ^[a], [M]^+ = 390/391”; `Cc1cc(Br)cc(C)c1OCC(O)(Cn1cncn1)C(C)(C)C` (stereo not drawn) [Compound 24]: “logP 3.85 ^[a], [M]^+ = 384/386”; `Cc1cc(OCC(O)(Cn2cncn2)C2(C)CC2)ccc1Br` (stereo not drawn) [Compound 48]: “logP 3.1 ^[a], [M]^+ = 368/369”.
On the same count and under the same terms, with `CC1(C(O)(COc2ccc(Br)cc2Cl)Cn2cncn2)CC1` (stereo not drawn) [Compound 41] the entry was “logP 3.22 ^[a], [M]^+ = 388/391”; with `Cc1cc(OCC(O)(Cn2cncn2)C2(C)CC2)cc(C)c1I` (stereo not drawn) [Compound 46], “logP 3.68 ^[a], [M]^+ = 428/430”; with `CC(C)(C)C(O)(COc1ccc(Br)c(F)c1F)Cn1cncn1` (stereo not drawn) [Compound 34], “logP 3.29 ^[a], [M]^+ = 392/394”.
Still for that read-out and setting: next, `Cc1cc(OCC(O)(Cn2cncn2)C2(C)CC2)cc(C)c1Br` (stereo not drawn) [Compound 39]: “logP 3.5 ^[a], [M]^+ = 382/384”; `COc1cc(Br)ccc1OCC(O)(Cn1cncn1)C(C)(C)C` (stereo not drawn) [Compound 20]: “logP 3.09 ^[a], [M]^+ = 386/388”.
Regarding `CC(C)(C)C(O)(COc1c(F)cc(Br)cc1F)Cn1cncn1` (stereo not drawn) [Compound 31], in data set [1], the logP result is “logP 3.37 ^[a], [M]^+ = 392/394”.
Still for that read-out and setting: with `CC(C)(C)C(O)(COc1ccc(Br)cc1Cl)Cn1cncn1` (stereo not drawn) [Compound 26] the entry was “logP 3.59 ^[a], [M]^+ = 389.9/393”.
Still for that read-out and setting: next, `CC(C)(C)C(O)(COc1cc(F)c(Br)c(F)c1)Cn1cncn1` (stereo not drawn) [Compound 33]: “logP 3.25 ^[a], [M]^+ = 392/394”; `COc1cc(OCC(O)(Cn2cncn2)C(C)(C)C)ccc1Br` (stereo not drawn) [Compound 27]: “logP 2.92 ^[a], [M]^+ = 386/388”.
Take `Cc1cc(OCC(O)(Cn2cncn2)C(C)(C)C)c(C)cc1I` (stereo not drawn) [Compound 36]: in data set [1], the logP entry is “logP 4.15 ^[a], [M]^+ = 430/432”.
As to `CC(C)(C)C(O)(COc1ccc(Br)c(F)c1F)c1cncnc1` (stereo not drawn) [Compound 13], the inhibition at 50 µM with Fusarium proliferatum and in the data set on Fusarium graminearum was greater than 80% throughout.
For the molecule `CC(C)(C)C(O)(COc1ccc(Br)c(OC(F)(F)F)c1)Cn1cncn1` (stereo not drawn) [Compound 35], in [1], the logP entry was “logP 3.72^[a], [M]^+ = 440/441”.
Still for that read-out and setting: next, `Cc1cc(Br)cc(Cl)c1OCC(O)(Cn1cncn1)C(C)(C)C` (stereo not drawn) [Compound 25]: “logP 3.99 ^[a], [M]^+ = 403.9/407”; `COc1cc(OCC(O)(Cn2cncn2)C2(C)CC2)ccc1Br` (stereo not drawn) [Compound 42]: “logP 2.67 ^[a], [M]^+ = 384/386”.
The same measure, in the same setting: next, `CC(C)(C)C(O)(COc1ccc(Br)c(C(F)(F)F)c1)Cn1cncn1` (stereo not drawn) [Compound 32]: “logP 3.59 ^[a], [M]^+ = 424/426”; `Cc1cc(I)ccc1OCC(O)(Cn1cncn1)C1(C)CC1` (stereo not drawn) [Compound 47]: “logP 3.37 ^[a], [M]^+ = 414/416”; `CC(C)(C)C(O)(COc1c(F)cc(Br)cc1Cl)Cn1cncn1` (stereo not drawn) [Compound 28]: “logP 3.76 ^[a], [M]^+ =407.9/411”.
On the same count and under the same terms, next, `Cc1cc(OCC(O)(Cn2cncn2)C2(C)CC2)c(C)cc1I` (stereo not drawn) [Compound 45]: “logP 3.76 ^[a], [M]^+ = 428/430”.
In the case of `Cc1cc(Br)cc(Cl)c1OCC(O)(Cn1cncn1)C1(C)CC1` (stereo not drawn) [Compound 40], the logP result in data set [1] is “logP 3.68 ^[a], [M]^+ = 402/405”.
For `Cc1cc(OCC(O)(Cn2cncn2)C(C)(C)C)cc(C)c1Br` (stereo not drawn) [Compound 23], the logP result in data set [1] is “logP 3.85 ^[a], [M]^+ = 384/386”.
Take `CC(C)(C)C(O)(COc1c(Cl)cc(Br)cc1Cl)Cn1cncn1` (stereo not drawn) [Compound 21]: the logP result in [1] is “logP 4.04 ^[a], [M]^+ = 423.9/426”.
Same read-out and setting: with `Cc1cc(I)cc(C)c1OCC(O)(Cn1cncn1)C(C)(C)C` (stereo not drawn) [Compound 38] the entry was “logP 4.04 ^[a], [M]^+ = 430/432”.
`CC(C)(C)C(O)(COc1ccc(Br)cc1F)Cn1cncn1` (stereo not drawn) [Compound 8] returned an efficacy in the data set with Phakopsora pachyrhizi of no less than 80%.
